The text below walks through data of patent US20180042874A1, “METHOD FOR TREATING OSTEOPOROSIS” (China Medical University, priority 2016, published 2018).

SMILES strings stand for the structures.

Series [1] can be described thus: Body weight in ovariectomized osteoporosis rat model. In kind it is in vivo, Sprague-Dawley (SD) female rats. The settings on record: rat, in vivo. The method, then: (§1) Inducing osteoporosis animal models and experimental methods: • 1. 6-month old Sprague-Dawley (SD) female rats were purchased; • 2. These rats were divided into 7 groups, of which Group 1 was given pseudo-surgery, Group 2-7 underwent bilateral ovariectomies; • 3. On the 6th day after surgery, 1 mL/kg of vehicle alone was given orally to Group 1, Group 2 daily, Zoledronic Acid and Prolia were administered weekly by injections to Group 3, Group 4, respectively; 1, 3, 10 mg/kg of the compound of formula I was given orally every 3 days to Groups 5-7, respectively; • 4. Body weight and bone density were measured weekly, blood was drawn until the 118th day; • 5. Rats were then sacrificed to obtain kidneys, livers and rat tibia; • 6. Data were consolidated and processed.

The nature of series [2]: Liver and kidney toxicity in ovariectomized osteoporosis rat model. The series is classed as in vivo, Sprague-Dawley (SD) female rats. The following applies: ovariectomized rats, compared to commercially available drugs. The method, then: Inducing osteoporosis animal models and experimental methods: • 1. 6-month old Sprague-Dawley (SD) female rats were purchased; • 2. These rats were divided into 7 groups, of which Group 1 was given pseudo-surgery, Group 2-7 underwent bilateral ovariectomies; • 3. […] Body weight and bone density were measured weekly, blood was drawn until the 118th day; • 5. Rats were then sacrificed to obtain kidneys, livers and rat tibia; • 6. Data were consolidated and processed. [table]

The test system of the next series is hepatitis B virus (HBV). The following applies: human hepatocellular carcinoma cells; cited from earlier work.
The subject of another series is ovariectomized rats. As to the kind of experiment: Bone density in ovariectomized osteoporosis rat model. The series is classed as in vivo, Sprague-Dawley (SD) female rats. The method, then: as §1
In the next series the test system is NF-κB p65. As to the kind of experiment: Western blot of NF-κB p65. The series is classed as cell-based, mouse. The following applies: 10 μg/ml co-treated with 100 ng/ml RANKL, 48 hours. The method, then:
(§2) The effect of the compound of formula I on the protein expression of osteoclast MAPKs pathways induced by receptor activator of nuclear factor κB ligand was studied, experiments were performed by using the Western blot method; RAW 264.7 cells were rinsed in ice-cold PBS, cell lysis buffer was added, the components of the buffer solution included: 10 mM 4-(2-hydroxyethyl)-1-piperazineethanesulfonic acid (HEPES), 1.5 mM MgCl2, 0.5 mM dithiothreitol (DTT), 0.5 μg/ml leupeptin and 6.4% Nonidet P-40, reacted on ice for 15 minutes. The cells were scraped off with a spatula, collected into a 1.5 ml centrifuge tube, the cells were thoroughly broken by using a shaker; centrifuged at 12,000 rpm, 4° C. for 10 minutes; supernatant was added into a new 1.5 ml centrifuge tube; boiled with IX sodiumdodecyl sulfate (SDS) sample buffer, followed by electrophoresis using 10 to 12% SDS-PAGE. […] The transfer membrane was rinsed again and the membrane loaded with chemical luminescence reagent ECL was allowed to react with a photosensitive sheet in a darkroom for a suitable period of time, the photosensitive sheet then reacted with the developer. After the photosensitive sheet was exposed to light a band-shaped antibody-binding proteins was observed, quantified by the density of the bands. […]

Another series relates to p38. As to the kind of experiment: Western blot of MAPK pathway, phosphorylated p38. The series is classed as cell-based, mouse. The settings on record: 10 μg/ml co-treated with 100 ng/ml RANKL, 0-60 minutes. The method, then: as §2
For orientation: Immunoblotting shows a protein as a band on a membrane.

Another series concerns ERK. Put plainly: Western blot of MAPK pathway, phosphorylated ERK. In kind it is cell-based, mouse. The settings on record: 10 μg/ml co-treated with 100 ng/ml RANKL, 0-60 minutes. The method, then:
as §2

Another series relates to c-Fos. As to the kind of experiment: Western blot of MAPK downstream protein c-Fos. In kind it is cell-based, mouse. The settings on record: 10 μg/ml co-treated with 100 ng/ml RANKL, 48 hours. The method, then: as §2
The next series has as its system NFATc2. Put plainly: Western blot of MAPK downstream protein NFATc2. The settings on record: 10 μg/ml co-treated with 100 ng/ml RANKL, 48 hours. The series is classed as cell-based, mouse. The method, then:
as §2

On to `CNC(=O)N[C@]1(C)CCC[C@@]2(C)C3CC[C@@]4(C)C[C@]3(CCC21)CC4=O` (single isomer, unassigned; ent-16) [compound of formula I, ent-16-oxobeyeran-19-N-methylureido], for which, in [1], the “effect on body weight” value was “different from commercially available drugs”. In [2], the “cytotoxicity in kidney (blood urea nitrogen, plasma creatinine)” value is on record as “less cytotoxicity in kidney than Zoledronic acid” and the “cytotoxicity in liver (alanine aminotransferase)” value is “less cytotoxicity in liver than Proliaor”. For the same compound, in the series on hepatitis B virus (HBV), the “secretion of hepatitis B virus antigen (HBeAg)” value is “effectively suppress” and the “secretion of hepatitis B virus surface antigen (HBsAg)” value was “effectively suppress”. Besides, in the series with ovariectomized rats (ovariectomized rats, 1, 3, 10 mg/kg PO once every 3 days, 19 weeks after ovarian removal), the “effect on reduced tibial bone density caused by ovarian removal” value was “improve the reduced tibial bone density”. Besides, in the series on ovariectomized rats (ovariectomized rats, PO once every 3 days, as compared to the experimental group), the “increase of tibial bone density” value is 10%. Also, in the series with NF-κB p65, the “NF-κB p65 protein expression” value is on record as “protein expression was reduced”. The “expression of phosphorylated p38” value in the series with p38 is given as “decreased”. Also, in the series on ERK, the “expression of phosphorylated ERK” value was “decreased”. Also, the c-Fos protein expression entry with c-Fos was “significantly reduced”. Also, the NFATc2 protein expression result in the series with NFATc2 is listed as “significantly reduced”.
